The source of these data is patent publication US20260283999A1, “STAT3 INHIBITOR TO TREAT SU[…]” (UNIVERSITY OF FLORIDA RESEARCH FOUNDATION, INCORPORATED, priority 2022, published 2026).

Test [1] deals with SAH model. The test can be described thus: Immunohistochemistry of brain slices after SAH (p-STAT3, Arg1, Cox2, iNOS, TLR-4). The format is in vivo. Conditions: mice, following SAH; 5 mg/kg on days 1, 2, and 3 following SAH. As to the method: (§1) Studies were conducted wherein repetitive dosing on days 1, 2, and 3 following SAH occurred with 5 mg/kg of the p-STAT3 inhibitor. […] The STAT inhibitor used in these studies was LLL12B.
The SAH model utilized modified autologous blood injection to basal cisterns adjacent to right anterior circulation. [Dodd W S, Noda I, Martinez M, Hosaka K, Hoh BL. NLRP3 inhibition attenuates early brain injury and delayed cerebral vasospasm after subarachnoid hemorrhage. J Neuroinflammation. 2021; 18 (1): 163.]. Briefly, mice we anesthetized with 10 mg/kg xylazine and 100 mg/kg ketamine prior to shaving/cleaning the scalp. The tail was prepped, shaved, and cleaned. The mouse's head was fixed to the stereotaxic frame and body temperature maintained at 37° C. using a heating pad. The scalp was incised along the sagittal suture from bregma to the nasal bone. The skin was reflected and held in place by retraction. The burr hole was positioned 5.0 mm rostral to bregma and 0.5 mm right of midline. Next, 150 μL of arterial blood was drawn from the tail artery. 50 μL of blood was drawn up into a Hamilton syringe. The syringe needle was passed at a 30° caudal angle until it reached the skull base. The syringe was left in place and blood was manually injected at a rate of 10 μL/min. The mouse's respiratory rate was closely monitored. […]

The subject of test [2] is SAH model. In words: Cerebral blood flow by laser speckle perfusion imaging after SAH. The format is in vivo. Conditions: mice, 48 hours after SAH; 5 mg/kg repetitive dosing following SAH; FIG. 3. On the procedure:
as §1
The SAH model utilized modified autologous blood injection to basal cisterns adjacent to right anterior circulation. [Dodd W S, Noda I, Martinez M, Hosaka K, Hoh BL. NLRP3 inhibition attenuates early brain injury and delayed cerebral vasospasm after subarachnoid hemorrhage. J Neuroinflammation. 2021; 18 (1): 163.]. Briefly, mice we anesthetized with 10 mg/kg xylazine and 100 mg/kg ketamine prior to shaving/cleaning the scalp. The tail was prepped, shaved, and cleaned. The mouse's head was fixed to the stereotaxic frame and body temperature maintained at 37° C. using a heating pad. […] The mouse's respiratory rate was closely monitored. […]
Four mice per group were utilized. Cerebral blood flow was measured with a laser speckle perfusion imager at 48 hours after SAH. […] Sufficient readings were able to be achieved without bone flap removal. […] Average perfusion per animal was documented and an imaging voxel with a calculated mean of 9.7 was used to measure bilateral MCA territory perfusion. A ratio of right to left MCA perfusion was calculated for each animal to allow reliable comparisons between groups and to control for variance in baseline blood pressure differences. […]

`CN(C)C(=O)Oc1cccc2c1C(=O)c1cccc(S(N)(=O)=O)c1C2=O` [LLL12B]: in test [1], the “systemic neuroinflammation (immunochemistry)” value was “reduces systemic neuroinflammation”. Also, the cerebral blood flow entry in test [2] is on record as “protective benefit for cerebral blood flow showing decreased risk for ischemia”.
